Experimental data from US10500198B2, “Bis-benzylidine piperidone proteasome inhibitor with anticancer activity” (The Johns Hopkins University, priority 2013, dated 2019).

Tests used:
ES-2 = assay: Cell viability after 48-hr treatment (Table 1); format: cell-based, human; settings: XTT assay
Description: (§1) Cells seeded at the concentration of 1,000 cells/well for HeLa, 5,000 cells/well for ES2 and HCT116 and 10,000-20,000 cells/well for other cell lines in 100 μL medium in 96-well plate were treated with RA series compounds at specified concentrations. […]

NCl-H929 = assay: Cell viability after 48-hr treatment (Table 1); format: cell-based, human; settings: XTT assay
Description: as §1

CasKi = assay: Cell viability after 48-hr treatment (Table 1); format: cell-based; settings: 48-hr treatment; XTT assay; read-out: IC50, CasKi
HOK-16B = assay: Cell viability after 48-hr treatment (Table 1); format: cell-based; settings: 48-hr treatment; XTT assay; read-out: IC50, HOK-16B
In short: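 ES-2 cells were plated at 5,000 cells/well; the other lines used 10,000-20,000 cells/well. MTS reagent was added for 1-2 hr before measuring absorbance at 490 nm.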

4UbFL reporter = assay: Proteasome inhibition in vivo (4UbFL reporter bioluminescence)
Description: After the indicated time points of treatment, bioluminescence was measured by injection of luciferin and imaging with an IVIS 200 (fold change±SD, *p<0.05, **p<0.01).
Two hours after gene gun delivery of the plasmid or one day post electroporation, mice were injected i.p. with 100 uL of luciferin (3 mg/mL) and anesthetized with isoflurane and optical imaging was performed for basal level luciferase expression. Images were acquired for 10 min with a Xenogen IVIS 200 (Caliper, Hopkinton, Mass.). Equally sized areas were analyzed using Living Image 2.20 software.

[1] = Complete blood counts and blood chemistry of C57BL/6 mice carrying TC-1 tumor; settings: C57BL/6 mice with TC-1 tumor; nine doses every third day: RA190 40 mg/kg p.o., Bortezomib 1.5 mg/kg i.p.; mean ± SD, n = 3;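 also: blood drawn from the heart after euthanasia, cell counts read on an automated hemocytometer, heparinized plasma analyzed on an automated clinical chemistry analyzer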
[2] = test system: purified recombinant UCH37 (with or without RPN13) or purified RP; assay: Ub-AMC hydrolysis assay; format: biochemical
Description: FIGS. 1 A-D show percent cell viability of RPMI-8226, ANBL6, and their respective in vitro selected bortezomib-resistant cell lines RPMI-8226-V10R and ANBL6-V10R as a function of 48 hr treatment with the indicated compounds. FIGS. 1 E-H show percent cell viability of indicated MM cell lines as a function of 48 hr treatment with the indicated compounds. […] Actin was used as a loading control. […] In FIG. 9C-E, purified 20S proteasomes were treated for 30 min with or without compounds (1 μM) prior to the addition of the specific fluorogenic substrate for chymotryptic (9C), tryptic (9D) or PGPH (9E) hydrolytic proteasome capacities. Mean±SD fluorescence associated with AMC released from the substrate was measured at 45 min. […] DMSO was added to all samples to a final concentration of 0.1% (upper panel). The effect of DMSO is highlighted by including ubiquitin—AMC (0.5 μM) hydrolysis with 2 nM UCH37 lacking DMSO (orange, bottom panel). In FIG. 9H, purified 19S RP (500 nM) in buffer was treated with corresponding compounds 30 min at 37° C. and AMC cleavage was measured with a fluorometer for 20 min. Ubal was used as a positive control.
Reaction mixtures contained 500 nM of the purified 19S RP (R&D Systems) in 19S enzyme assay buffer and 1 μM Ub-AMC. Release of free AMC by the enzyme reaction was determined by measuring its fluorescence at 380 nm (excitation) and 440 nm (emission). […]

MM lines = assay: Cell viability, MM lines; format: cell-based; settings: antiproliferative effects, 48-hr treatment; read-out: IC50 against MM lines
Description: Cell viability was assayed using CellTiter 960 AQueous One Solution Reagent (Promega, Madison, Wis.). Cells seeded at the concentration of 1,000 cells/well for HeLa, 5,000 cells/well for ES2 and HCT116 and 10,000-20,000 cells/well for other cell lines in 100 μL medium in 96-well plate were treated with RA series compounds at specified concentrations. After the indicated periods, cells were incubated according to the manufacturer's protocol with the MTS labeling mixture for 1-2 hr and absorbance at 490 nm measured using a Benchmark Plus microplate spectrophotometer (BIO-RAD).

PAO3C cells = assay: Immunoblot of PAO3C pancreatic cell lysates; format: cell-based; settings: 1 uM
Description: Cell lysate was subjected to immunoblot and probed for anti UB antibody. For Bax proteins levels cells were treated for 24 hr. Actin used as […].

NCI-H929 cells = assay: Active caspase-3 by FACS; format: cell-based, human; settings: 0.5 μM, 8 h
Description: NCI-H929 cells were treated with RA195 (0.5 μM) and Bz(0.5 μM) for the period of 8 h. Cells were stained for PE-conjugated Caspase-3 antibody and measured active caspase-3 by FACS.

HeLa cells = assay: Active caspase-3 by FACS; format: cell-based, human; settings: 1 μM, 8 h
Description: HeLa cells were treated with RA195 (1 μM) and Bz(1 μM) for the period of 8 h. Cells were stained for PE-conjugated Caspase-3 antibody and measured active caspase-3 by FACS.

[3] = i.m. electroporated 4UbFL, RA190 40 mg/kg i.p., bortezomib 1.5 mg/kg i.p.

Cl.N[C@@H](Cc1ccccc1)C(=O)N1CC(=Cc2ccc(Cl)c(Cl)c2)C(=O)C(=Cc2ccc(Cl)c(Cl)c2)C1 [RA190, 3,5-bis(3,4-dichlorobenzylidene)-1-(S-2-amino-3-phenyl)-piperidin-4-one-HCl salt]
IC50 (ES-2): 750 nM | IC50 (NCl-H929): 50 nM | IC50 (CasKi): 300 nM | IC50 (HOK-16B): 600 nM | bioluminescence after oral administration (4UbFL reporter; 40 mg/kg orally, 4UbFL i.m. by electroporation or in skin via gene gun): increased the bioluminescence | 4UbFL reporter in skin after topical administration (4UbFL reporter; 4% in Cremophor-EL topically): stabilized the 4UbFL reporter in skin | bioluminescence at 48 hr after treatment (4UbFL reporter; i.m. electroporated 4UbFL, RA190 40 mg/kg i.p.): significant increase in bioluminescence | bioluminescence compared to vehicle alone, 4 hr after treatment (4UbFL reporter; [3]): 4 fold | increase in bioluminescence, one day post-treatment (4UbFL reporter; [3]): 4 fold | ALBNEW (Albumin) [1]: 2.76 ± 0.23 | ALPNEW (Alkaline Phosphatase) [1]: 55.33 ± 6.50 | ALTNEW (Alanine Aminotransferase) [1]: 31.33 ± 2.30 | AMYL (Amylase) [1]: 621.33 ± 127 | ASTNEW (Aspartate aminotransferase) [1]: 50.33 ± 4.93 | BA(Basophils) [1]: 0.023 ± 0.011 | BUNNEW (Blood Urea Nitrogen) [1]: 26 ± 5.29 | CA (Calcium) [1]: 8.56 ± 0.23 | CHOL (Cholesterol) [1]: 67 ± 4.58 | CK_NEW (Creatinine Kinase) [1]: 131 ± 65.50 | CREAT (Creatinine) [1]: 0.46 ± 0.057 | EO (Eosinophils) [1]: 0.10 ± 0.01 | GGTNEW (Gamma-Glutamyl Transferase) [1]: 5.33 ± 0.57 | GLU (Glucose) [1]: 170.66 ± 6.11 | HCT(Hematocrit) [1]: 50.36 ± 2.45 | HDLNEW (High Density Lipoprotein) [1]: 40.33 ± 4.72 | Hb (Hemoglobin) [1]: 13.26 ± 1.00 | LDH (lactate Dehydrogenase) [1]: 172.06 ± 14.29 | LY(Lymphocytes) [1]: 1.87 ± 0.69 | MCH (Mean corpuscular hemoglobin) [1]: 13.60 ± 0.53 | MCHC (mean corpuscular hemoglobin concentration) [1]: 26.33 ± 0.75 | MCV (Mean corpuscular Volume) [1]: 51.66 ± 2.63 | MO(Monocytes) [1]: 0.25 ± 0.07 | MPV (Mean Platelet Volume) [1]: 5.36 ± 0.06 | NE(Neutrophils) [1]: 2.69 ± 0.45 | PLT (Platelet) [1]: 907 ± 45.92 | RBC (red Blood Cells) [1]: 9.77 ± 0.76 | RDW (Red Blood Cell Distribution Width) [1]: 18.00 ± 0.52 | TBIL1 (Total bilirubin) [1]: 0.233 ± 0.057 | TPROT (Total protein) [1]: 4.46 ± 0.11 | UA (Uric Acid) [1]: 2.86 ± 0.41 | WBC(White Blood Cells) [1]: 7.62 ± 4.17 | degradation of Ub-AMC [2]: minimally affected | IC50 (MM lines): ≤ 100 nM

Cl.NCCCC[C@H](NC(=O)OCC1c2ccccc2-c2ccccc21)C(=O)N1C/C(=C\c2ccc(Cl)c(Cl)c2)C(=O)/C(=C/c2ccc(Cl)c(Cl)c2)C1 [RA195]
Poly Ubiquitinated proteins (PAO3C cells; 12 h): causes accumulation of Poly Ubiquitinated proteins | apoptotic protein Bax (PAO3C cells; 24 hr): elevation of apoptotic protein Bax | active caspase-3 (NCI-H929 cells): caused an increase in caspase-3 expression | active caspase-3 (HeLa cells): induced active capase expression
